According to patent US12564630B2, “Vaccine adjuvants” (priority 2020, dated 2026):

How the values were obtained:
[1] = human trials; cited from earlier work
[2] = Chemisorption to aluminum hydroxide ("Alum") quantified by liquid chromatography-mass spectrometry; assay type: physicochemical
Source text: Chemisorption was quantified by liquid chromatography-mass spectrometry. When appropriate ratios of the adjuvant and aluminum hydroxide are used, all of the adjuvant is bound to alum. This ensures delivery of the adjuvant to the draining lymph nodes, and minimizes systemic exposure. It is important not to exceed the ratio to avoid the presence of excess small molecule adjuvant. […] The ratio can range from 1:10 (mg Compound 1:mL aluminum hydroxide gel) to 10:1, or from 1:8 to 8:1, or 1:5 to 5:1; or 1:2 to 2:1, or about 1:1.
The Compound is chemisorbed onto aluminum hydroxide to form an adjuvant complex referred to herein as (“Alhydroxiquim-II”). The trihydroxybenzyl appendage of the adjuvant Compound 1 ligand-exchanges with the hydroxyl groups of aluminum hydroxide (chemisorption). When appropriate ratios of the adjuvant and aluminum hydroxide are used, all of the adjuvant is bound to alum. This ensures delivery of the adjuvant to the draining lymph nodes, and minimizes systemic exposure. It is important not to exceed the ratio to avoid the presence of excess small molecule adjuvant.
Chemisorption was quantified by liquid chromatography-mass spectrometry.

[3] = 10 mg of the small-molecule to 10 mL of standard Alhydrogel (10 mg of aluminum content/mL)

SMILES	tolerability (systemic side effects including fever, headache, malaise, and myalgia) [1]	binding to aluminum hydroxide gel (Alhydrogel) [2, 3]	concentrations of free small molecule [2, 3]	chemisorption to “Alum” ([2]; quantified by LC-MS, FIG. 2)
CCOCc1nc2c(N)nc3ccccc3c2n1CC(C)(C)O [Resiquimod]	poorly tolerated			
CCCCc1nc2c(N)nc3ccccc3c2n1Cc1cccc(CNC(=O)c2cc(O)c(O)c(O)c2)c1 [Compound 1, N-(3-((4-amino-2-butyl-1H-imidazo[4,5-c]quinolin-1-yl)methyl)benzyl)-3,4,5-trihydroxybenzamide]		complete binding	undetectable	saturable
